# Structures can show the parent of a compound that is named as a salt.
# Assays:
# ABTS assay (TEAC) = details: for Trolox Equivalent Antioxidant Capacity (TEAC): ethanol, room temperature, 734 nm, 2 min, extrapolated at 10 μM, Trolox mM equivalent
# Description: The antioxidant capacity of compounds 1–12 was measured according to the method of Pellegrini et al. but working at room temperature. 6-Hydroxy-2,5,7,8-tetramethylchroman-2-carboxylic acid (Trolox) was used as reference. The analyses were carried out in ethanol (0.2% of water) at room temperature and the absorbance was measured at λ = 734 nm. Each sample (1.0 mL) of ABTS^+• was obtained from the aqueous mother solution by dilution with ethanol to an absorbance of […], and 10 μL of the ethanol solution of the antioxidant was added. All compounds were analyzed at four different final concentrations ranging from 1 to 10 μM. The absorbance was measured after 2 min. Four measurements were recorded for each concentration. Each time blanks of pure solvent were run. The standard deviations of data were all below 5%. The dose-response curves were expressed as the percentage of absorbance decrease (ABTS inhibition expressed as percentage) against the amount of antioxidant concentration. Linear regression was conducted using GraphPad Prism 4.01 (2004) software. The antioxidant capacities were extrapolated at 10 μM concentration and reported as Trolox Equivalent Antioxidant Capacity (TEAC), defined as the concentration (mmol/L) of Trolox having the antioxidant capacity equivalent to that of a 1.0 mmol/L solution of the substance under investigation. Results are expressed as mean ± standard deviation. Statistical analyses were performed using the Student’s t test. The level of significance was p < 0.05 for all data.
# L6 myoblasts = test: Intracellular ROS determination (DCF assay) in L6 myoblasts; type: cell-based, rat; details: for antioxidant activity in cells, DCF assay: L6 and THP-1 cells; for activity at 10 µM: Rattus norvegicus, L6, 10 min, L-6 cells, compound 10 µM, 200 µM cumene hydroperoxide, ΔF/10 min, read-out: Intracellular ROS, DCF fluorescence (Mean) relative to cumene hydroperoxide alone (100%)
# Description: (§1) The fluorometric DCF assay is a useful technique to evaluate the antioxidant activity of compounds in cells exposed to oxidative stress induced by cumene hydroperoxide. The analyses were carried out in two different cell lines particularly sensitive to radical production: L6 myoblasts from rat skeletal muscle and THP-1 human leukemic monocytes.
# (§2) The antioxidant activity of each compound was measured by a standard intracellular fluorescent probe (DCF) assay using L6 myoblasts and THP-1 monocytes exposed to oxidative stress by the addition of cumene hydroperoxide, a radical generator. Fluorescence was measured over a 10-min period, and the ability of the compounds to eliminate the increased ROS production was determined. For L6 myoblasts, growing attached to the bottom of the flask, the medium was discarded and cells were washed twice with 5 mL phosphate buffered saline (PBS) containing 5.0 mM glucose (PBS-glucose) at 37 °C. Cells were gently scraped off with PBS-glucose at 37 °C and centrifuged at 1200 rpm for 5 min (approximately 100× g). The supernatant was discarded and the pellet resuspended in PBS-glucose. Incubation with the probe DCFH2-DA at a final concentration of 10 µM (from a stock solution of 10 mM in DMSO) was carried out for 30 min at 37 °C in the dark. At the end of the incubation, cells were washed twice, centrifuged at 1200 rpm for 5 min, and the final cell pellet was resuspended in PBS-glucose. Before the experiment was initiated, cells were allowed to recover for 1 h at room temperature in the dark. The THP-1 monocytes, growing in suspension, were centrifuged at 1200 rpm for 10 min. The supernatant was discarded, and cells were washed twice with 5 mL PBS-glucose at 37 °C to remove the serum. The pellet was successively resuspended in PBS-glucose, and the probe DCFH2-DA was added at 10 µM final concentration. From that point onwards, the protocols for the two cell types were identical. Intracellular fluorescence was measured at 37 °C using a Perkin Elmer VICTOR 3V spectrofluorometer (excitation at λ = 498 nm and emission at λ = 530 nm). […] Cells were incubated with compounds at the final designated concentration for 10 min at 37 °C before addition of the radical generator. The decrease in the intracellular DCF fluorescence relative to the fluorescence change induced by 200 μM cumene hydroperoxide alone (100%), reported as ΔF/10 min, determined the antioxidant activities. Data are reported as the mean ± standard deviation of at least four different experiments carried out in triplicate. One-way ANOVA test (non-parametric) and Bonferroni post-test (comparing all pairs of columns) were used for the statistical analyses.
# [1] = system: THP-1 human leukemic monocytes; test: Intracellular ROS determination (DCF assay) in THP-1 monocytes; type: cell-based; details: 10 min, THP-1 cells, compound 10 µM, 200 µM cumene hydroperoxide, ΔF/10 min, read-out: Intracellular ROS, DCF fluorescence (Mean) relative to cumene hydroperoxide alone (100%)
# Description: as §1, §2
# [2] = Measurement of partition coefficient (logP) by UV-Vis spectrophotometry; type: physicochemical; details: 1-octanol / phosphate buffer 0.1 M pH 7.4; mean of triplicate determinations
# From the text: Lipophilicity is a relevant property to estimate the bioavailability and dispersion of a molecule in non-aqueous media (oils, fats, and emulsions) and in the cellular environment. Generally, it can be related to logP, a parameter that evaluates the partition of a molecule between two immiscible solvents (water and 1-octanol). […] As already reported in the literature, the lipophilic character increased from hydroxytyrosol 6 to homovanillyl alcohol 5 and tyrosol 4.
# The logP value of all compounds was determined as reported in the literature by UV-Vis spectrophotometry. The partition coefficient (logP) was calculated according to the following relationship: logP = logAx/(A0 − Ax). A0 was the maximum of absorbance of a solution 0.15 mM of each compound dissolved in 1-octanol; Ax is the maximum of absorbance of the organic solution containing the compound after separation from the phosphate buffer (0.1 M, pH 7.4) solution. A solution of 1-octanol saturated with the buffer was used as a blank.
# L6 cells = test: Proliferation curves (cell counts) in L6 cells; type: cell-based, rat; details: 10 µM, absence or presence of cumene hydroperoxide 40 µM
# Description: (§3) L6 cells were seeded in 60 × 15 mm Petri dishes in 4 mL of the complete growth medium at a density of approximately 10^5 cells/well. The following day, the cells were exposed to the selected compounds 1, 5–7, 11, and 12 at a final concentration of 10 µM in the absence and presence of cumene hydroperoxide (40 µM). Cell counts using a Neubauer chamber were made every 24 h up to confluence. Each time the L6 myoblasts had to be counted, they first underwent a mild trypsinization. THP-1 cells were seeded in 24-well plates in 1 mL of the growth medium. After 24 h, the cells were exposed to 10 µM of the same compounds in the absence and presence of cumene hydroperoxide (200 µM) and incubated for an additional 24 h. Cell counts using a Neubauer chamber were made every 24 h up to confluence. The results are given as the mean ± standard deviation of two different experiments.
# THP-1 cells = test: Proliferation curves (cell counts) in THP-1 cells; type: cell-based, human; details: 10 µM, absence or presence of cumene hydroperoxide 200 µM
# Description: as §3
smiles,measurement,setting,value
"OCCc1ccccc1 [Compound 1, phenethyl alcohol]",antiradical activity / antioxidant capacity in ABTS assay,ABTS assay (TEAC),very low antiradical activity
same,Trolox Equivalent Antioxidant Capacity (TEAC),ABTS assay (TEAC),0.00 mM
same,"antioxidant activity in cells, DCF assay",L6 myoblasts,good antioxidant activity
same,activity at 10 µM,L6 myoblasts,31%
same,activity at 10 µM,[1],33%
"OCCc1ccccc1O [Compound 2, 2-hydroxyphenethyl alcohol]",logP,[2],0.72 ± 0.07
same,antiradical activity / antioxidant capacity in ABTS assay,ABTS assay (TEAC),good antioxidant capacity
same,Trolox Equivalent Antioxidant Capacity (TEAC),ABTS assay (TEAC),0.69 mM
same,activity at 10 µM,L6 myoblasts,23%
same,activity at 10 µM,[1],25%
"OCCc1cccc(O)c1 [Compound 3, 3-hydroxyphenethyl alcohol]",logP,[2],0.66 ± 0.06
same,Trolox Equivalent Antioxidant Capacity (TEAC),ABTS assay (TEAC),0.43 mM
same,activity at 10 µM,L6 myoblasts,25%
same,activity at 10 µM,[1],23%
"OCCc1ccc(O)cc1 [Compound 4, 4-hydroxyphenethyl alcohol]",logP,[2],0.69 ± 0.05
same,Trolox Equivalent Antioxidant Capacity (TEAC),ABTS assay (TEAC),0.45 mM
same,activity at 10 µM,L6 myoblasts,41%
same,activity at 10 µM,[1],25%
"COc1cc(CCO)ccc1O [Compound 5, 4-hydroxy-3-methoxyphenethyl alcohol]",logP,[2],0.46 ± 0.02
same,antiradical activity / antioxidant capacity in ABTS assay,ABTS assay (TEAC),good antioxidant capacity
same,Trolox Equivalent Antioxidant Capacity (TEAC),ABTS assay (TEAC),0.81 mM
same,activity at 10 µM,L6 myoblasts,22%
same,activity at 10 µM,[1],21%
same,effect on cell proliferation (cell counts),L6 cells,promoted L6 myoblast proliferation
same,effect on cell proliferation (cell counts),THP-1 cells,inhibited THP-1 tumor cell growth
"OCCc1ccc(O)c(O)c1 [Compound 6, 3,4-dihydroxyphenethyl alcohol]",logP,[2],0.1 ± 0.01
same,antiradical activity / antioxidant capacity in ABTS assay,ABTS assay (TEAC),good antioxidant capacity
same,Trolox Equivalent Antioxidant Capacity (TEAC),ABTS assay (TEAC),0.68 mM
same,activity at 10 µM,L6 myoblasts,7%
same,activity at 10 µM,[1],14%
"O=C(OCCc1ccccc1)C(F)(F)F [Compound 7, Phenethyl trifluoroacetate]",logP,[2],2.38 ± 0.18
same,antiradical activity / antioxidant capacity in ABTS assay,ABTS assay (TEAC),very low antiradical activity
same,Trolox Equivalent Antioxidant Capacity (TEAC),ABTS assay (TEAC),0.00 mM
same,"antioxidant activity in cells, DCF assay",L6 myoblasts,good antioxidant activity
same,activity at 10 µM,L6 myoblasts,29%
same,activity at 10 µM,[1],30%
"O=C(OCCc1ccccc1O)C(F)(F)F [Compound 8, 2-Hydroxyphenethyl trifluoroacetate]",logP,[2],2.05 ± 0.16
same,antiradical activity / antioxidant capacity in ABTS assay,ABTS assay (TEAC),good antioxidant capacity
same,Trolox Equivalent Antioxidant Capacity (TEAC),ABTS assay (TEAC),0.75 mM
same,activity at 10 µM,L6 myoblasts,26%
same,activity at 10 µM,[1],25%
"O=C(OCCc1cccc(O)c1)C(F)(F)F [Compound 9, 3-Hydroxyphenethyl trifluoroacetate]",logP,[2],1.96 ± 0.14
same,Trolox Equivalent Antioxidant Capacity (TEAC),ABTS assay (TEAC),0.38 mM
same,activity at 10 µM,L6 myoblasts,25%
same,activity at 10 µM,[1],28%
"O=C(OCCc1ccc(O)cc1)C(F)(F)F [Compound 10, 4-Hydroxyphenethyl trifluoroacetate]",logP,[2],1.98 ± 0.14
same,Trolox Equivalent Antioxidant Capacity (TEAC),ABTS assay (TEAC),0.36 mM
same,activity at 10 µM,L6 myoblasts,21%
same,activity at 10 µM,[1],20%
"COc1cc(CCOC(=O)C(F)(F)F)ccc1O [Compound 11, 4-Hydroxy-3-methoxyphenethyl trifluoroacetate]",logP,[2],1.9 ± 0.12
same,antiradical activity / antioxidant capacity in ABTS assay,ABTS assay (TEAC),good antioxidant capacity
same,Trolox Equivalent Antioxidant Capacity (TEAC),ABTS assay (TEAC),0.87 mM
same,activity at 10 µM,L6 myoblasts,20%
same,activity at 10 µM,[1],23%
"O=C(OCCc1ccc(O)c(O)c1)C(F)(F)F [Compound 12, 3,4-Dihydroxyphenethyl trifluoroacetate]",logP,[2],1.62 ± 0.12
same,antiradical activity / antioxidant capacity in ABTS assay,ABTS assay (TEAC),good antioxidant capacity
same,Trolox Equivalent Antioxidant Capacity (TEAC),ABTS assay (TEAC),0.77 mM
same,activity at 10 µM,L6 myoblasts,4%
same,activity at 10 µM,[1],16%
"Cc1c(C)c2c(c(C)c1O)CCC(C)(C(=O)O)O2 (stereo not drawn) [Trolox, 6-Hydroxy-2,5,7,8-tetramethylchroman-2-carboxylic acid]",Trolox Equivalent Antioxidant Capacity (TEAC),ABTS assay (TEAC),1.00 mM

# — publication PMC6017616, “Synthesis and Evaluation of the Antioxidant Activity of Lipophilic Phenethyl Trifluoroacetate Esters by In Vitro ABTS, DPPH and in Cell-Culture DCF Assays” (Molecules : A Journal of Synthetic Chemistry and Natural …, 2018)
